Tested on: iMSCs
Test: iMSC expansion, seeded at 1000 cells/well, day 10 morphology and cell number
Format: cell-based
Method: Cryopreserved iMSCs (RC01005, Nuwacell Co., Ltd.) were seeded in 6-well plates at 1000 cells/well in M1 medium to thaw the cells. The medium was replaced 24 h later with 2 ml/well of the following medium: M1; or M2 (5% HPLT) further supplemented with or without one or more growth factors (F: FGF2 (10 ng/ml, Nuwacell Co., Ltd.); P: PDFG-BB (10 ng/ml, Cat. No.: 100-14B-100, Peprotech); T: TGFβ1 (1 ng/ml, Cat. No.: 100-21, Peprotech)) in the absence or presence of hydrocortisone (1 μM, Cat. No.: 4098, Tocris). […] The medium was changed with the same medium every three days. On day 10 of culture, the cells were digested by solase (RP01021, Nuwacell Co., Ltd.) for 3 min and collected, and then centrifugated, and with the supernatant removed, resuspended in the corresponding medium, and the number of iMSC cells was counted by cell viability analyzer (Vi-CELLTMXR, BECKMAN COULTER) (FIG. 5).

Row | Compound | effect of addition on iMSC proliferation (Example 5, hydrocortisone 1 μM added to M2 (5% HPLT)) | effect of addition to M3 on iMSC growth (Example 13, 4 mg/L dialyzed HSA, 25 μg/ml heparin sodium, FIG. 13)
1 | C[C@]12CCC(=O)C=C1CC[C@@H]1[C@@H]2[C@@H](O)C[C@@]2(C)[C@H]1CC[C@]2(O)C(=O)CO [hydrocortisone] | could promote the iMSC proliferation | –
2 | heparin sodium | – | could further promote iMSC growth
